Test results from PubChem BioAssay AID1645848.
≈ marks a conversion by molar mass, not a printed value.

Conditions: buffer; pH 7.4; 6.0 h; 150.0 µM

Fc1ccc(-c2csc3ncnc(NCc4ccc5c(c4)OCO5)c23)cc1 and Clc1ccccc1-c1nnc2sc(-c3ccc4c(c3)OCO4)nn12 cannot be ordered by solubility kinetic: 0.226 µg/mL (≈ 0.596 µM) for the first, under 1 µg/mL for the second.

COCCn1ccc2c(C3=CCOCC3)nc(-c3cccc(NC(C)=O)c3)cc21 and Cn1ccc2c(C(=O)NCc3cccnc3)nc(-c3ccc(CO)cc3)cc21 cannot be ordered by solubility kinetic: over 87 µg/mL for the first, over 82 µg/mL for the second.

COc1ccc(C)cc1NC(=O)c1cnc(-c2ccc(F)cc2)nc1-c1ccncc1 and Cc1ccc(S(=O)(=O)Nc2cnccc2C(=O)Nc2nc(-c3cccc(F)c3)cs2)cc1 cannot be ordered by solubility kinetic: under 1 µg/mL for the first, 0.167 µg/mL (≈ 0.356 µM) for the second.

Going from CC(=O)Nc1ncc(S(=O)(=O)N2CCOCC2)s1 to Cn1cc(S(=O)(=O)N2CCOCC2)cc1C(=O)Nc1ccc(Cl)c(C(F)(F)F)c1, the solubility kinetic falls from 26.6 µg/mL (≈ 91.1 µM) to under 1 µg/mL.

N#Cc1ccccc1Nc1ncc(-c2cccc3ccccc23)o1 and N#Cc1cnccc1-c1nc(Nc2ccc(F)c(F)c2)c2ccccc2n1 cannot be ordered by solubility kinetic: under 1 µg/mL for the first, under 1 µg/mL for the second.

First: CC(=O)N1CCc2c(sc3c2c(=O)n(-c2ccccc2Cl)c(=O)n3Cc2cccc(C)c2)C1
Second: O=C1CN(C(=O)CCC(=O)N2CCc3c(nc4cc(-c5ccccc5)[nH]n4c3=O)C2)c2ccccc2N1
The solubility kinetic of the first is 7.2-fold lower: 2.16 µg/mL (≈ 4.5 µM) for the first, 15.6 µg/mL (≈ 31.3 µM) for the second.

O=C(NC1CCN(c2cc(-c3ccc(Cl)cc3)[nH]n2)C1)c1ccccc1 (centres undefined) and O=C(c1ccccc1)N1CCN(c2nc(-c3ccc(Br)cc3)cs2)CC1 cannot be ordered by solubility kinetic: under 1 µg/mL for the first, under 1 µg/mL for the second.

First: COC(=O)c1cc(Cl)ccc1NC(=O)CSc1ncc(S(=O)(=O)c2ccc(Br)cc2)c(=O)[nH]1
Second: CC(C)c1ccc(S(=O)(=O)c2cnc(SCC(=O)Nc3ccc4c(c3)OCCO4)[nH]c2=O)cc1
The solubility kinetic of the first is lower: 59.1 µg/mL (≈ 103 µM) for the first, over 74 µg/mL for the second.

First: O=C(c1ccc2c(c1)OCO2)N1CCC(Cc2nc(-c3cnccn3)no2)CC1
Second: O=C(c1nc(-c2ccc(Cl)cc2Cl)c2cnccn12)N1CCOCC1
The solubility kinetic of the first is higher: over 39 µg/mL for the first, 20.2 µg/mL (≈ 53.6 µM) for the second.

Cc1nc2c(-c3ccccc3)cnn2c(N)c1-c1ccccc1 and Cc1nn2c(c1-c1ccccc1-c1ccccc1)N(CCC(C)C)CCC2 cannot be ordered by solubility kinetic: under 1 µg/mL for the first, under 1 µg/mL for the second.

Going from O=C(C1CCN(c2nc(-c3ccc(Br)cc3)cs2)CC1)N1CCOCC1 to Cc1ccc(-c2csc(N3CCC(C(N)=O)CC3)n2)cc1, the solubility kinetic rises from 7.27 µg/mL (≈ 16.7 µM) to 32.9 µg/mL (≈ 109 µM) (4.5-fold).

Compared with Cc1ccc(-c2c(CN3CCN(c4cccc(C(F)(F)F)c4)CC3)csc2C)cc1, Cc1cc(C)nc(NC(=S)N2CCN(c3cccc(C(F)(F)F)n3)CC2)c1 is higher in solubility kinetic: under 1 µg/mL for the first, 20.6 µg/mL (≈ 52 µM) for the second.

Compared with COc1ccc(-c2nc(N3CCOCC3)c3sc(CN(C)c4ncc(C(=O)NO)cn4)cc3n2)cn1, CN(C)c1cccc(-c2ncc(F)c(N3CCC(C(N)=O)CC3)n2)c1 is higher in solubility kinetic: 5.56 µg/mL (≈ 10.9 µM) for the first, over 51 µg/mL for the second.

First: CCCCC1CCC(C(=O)Nc2ccc(S(=O)(=O)Nc3nccs3)cc2)CC1 (centres undefined)
Second: O=S(=O)(Nc1ccc(C2CCNCC2)cc1)c1ccc(NCc2cccc(Cl)c2O)cc1
The solubility kinetic of the first is lower: under 1 µg/mL for the first, 47.2 µg/mL (≈ 100 µM) for the second.

Going from Nc1nc2c(s1)C(c1c(Cl)cccc1Cl)CC(=O)N2 (centres undefined) to NC(=O)C1CCN(c2nc(-c3ccc4occc(=O)c4c3)cs2)CC1, the solubility kinetic rises from under 1 µg/mL to over 52 µg/mL.

First: CC(=O)N1CCN(c2ccc(OCc3nn(C)c(C)c3-c3cccc4c(CCCOc5cccc6ccccc56)c(C(=O)O)n(Cc5cccnc5)c34)cc2)CC1
Second: CCOc1ccc(CCNC(=O)c2cc3ccccc3n2Cc2cccc(C)c2)cc1OCC
The solubility kinetic of the first is higher: over 100 µg/mL for the first, under 1 µg/mL for the second.

Cc1ccc(S(=O)(=O)Nc2ncccc2C(=O)Nc2nc(-c3ccccc3)cs2)cc1 and Cc1ccc(S(=O)(=O)Nc2ccc(C(=O)Nc3nc(-c4ccccc4)cs3)cc2Cl)cc1 cannot be ordered by solubility kinetic: under 1 µg/mL for the first, under 1 µg/mL for the second.

Compared with COCCNCc1ccc(-c2cc3nccc(Oc4ccc(NC(=O)C5(C(=O)Nc6ccc(F)cc6)CC5)cc4F)c3s2)nc1, Cc1ccc(-c2cc(C(=O)Nc3ccc(S(=O)(=O)N(C)Cc4nccs4)cc3)c3ccccc3n2)cc1C is higher in solubility kinetic: under 1 µg/mL for the first, 3.73 µg/mL (≈ 6.88 µM) for the second.

CCN1CCN(c2ccc3cc(S(=O)(=O)N4CCOCC4)ccc3n2)CC1 and CCCCNC(=O)CN1CCN(c2ncc(NC(=O)c3ccc(Cl)cc3)cc2C(=O)O)CC1 cannot be ordered by solubility kinetic: over 58 µg/mL for the first, over 70 µg/mL for the second.

Going from CCC(C)N(C)C(=O)c1cc2ccccc2c(-c2ccccc2Cl)n1 (centres undefined) to Cc1ccc(-c2cc(C(=O)O)c3ccccc3n2)cc1, the solubility kinetic rises from 38.6 µg/mL (≈ 109 µM) to over 39 µg/mL.

Cc1nnc(N2C(=O)c3oc4ccccc4c(=O)c3C2c2ccc(F)cc2)s1 (centres undefined) and CC1CCc2cc(F)ccc2N1C(=O)CSc1nnc2c(n1)[nH]c1ccccc12 (centres undefined) cannot be ordered by solubility kinetic: under 1 µg/mL for the first, under 1 µg/mL for the second.

O=C(Nc1ccccc1C(=O)Nc1cccc(C(F)(F)F)c1)c1ccccc1 and O=C(Nc1ccc(S(=O)(=O)Nc2nc(-c3ccccc3)cs2)cc1)c1ccc2ccccc2c1 cannot be ordered by solubility kinetic: under 1 µg/mL for the first, under 1 µg/mL for the second.

Going from Cn1c(=O)c2c(-c3ccc(Cl)cc3)n(CCc3ccccc3)cc2n(C)c1=O to Cc1ccc2c(c1)c(=O)c1ccccc1n2CCCC(=O)Nc1cc(Cl)ccc1C, the solubility kinetic falls from 2.15 µg/mL (≈ 5.46 µM) to under 1 µg/mL.

First: CC1=NN(c2ccc(C(=O)O)cc2)C(=O)/C1=C/c1ccc(-c2cc(C)c(C)cc2[N+](=O)[O-])o1
Second: COc1ccc(-n2c(C)c(C(C)=O)c3cc(O)ccc32)cc1
The solubility kinetic of the first is 5.6-fold lower: 1.01 µg/mL (≈ 2.26 µM) for the first, 5.69 µg/mL (≈ 19.3 µM) for the second.

CCOc1cc2c(cc1OCC)CN(C(=O)c1cc3sccc3n1Cc1ccccc1)CC2 and O=C(NCCCc1ccccc1)c1cccc(-c2cc(O)c3ncccc3c2)c1 cannot be ordered by solubility kinetic: under 1 µg/mL for the first, under 1 µg/mL for the second.

Cc1ccc(NS(=O)(=O)c2c(C)[nH]c(C)c2C(=O)N2CCCC2)cc1Cl and COc1ccc(NC(=O)c2[nH]c(C)c(C(C)=O)c2C)cc1S(=O)(=O)N1CCCCC1 are within 1.5-fold of each other in solubility kinetic: 48 µg/mL (≈ 121 µM) for the first, 34.2 µg/mL (≈ 79 µM) for the second.

Compared with O=C1Nc2ccccc2/C1=C\c1ccc(O)c(F)c1, O=[N+]([O-])c1cccnc1N/N=C/c1ccccc1O is lower in solubility kinetic: 9.29 µg/mL (≈ 36.4 µM) for the first, under 1 µg/mL for the second.

First: O=S(=O)(c1ccc(Cl)cc1)c1ccccn1
Second: O=C(CSc1ccccc1)Nc1nnc(COc2ccc(Cl)cc2)s1
The solubility kinetic of the first is higher: 31.8 µg/mL (≈ 125 µM) for the first, under 1 µg/mL for the second.

Compared with CCOC(=O)c1ccc(-n2c(C)cc(-c3nnc4n3CCCCC4)c2C)cc1, Cc1ccc(-n2c(C)cc(-c3nnc4n3CCCCC4)c2C)cc1 is lower in solubility kinetic: over 56 µg/mL for the first, 27.8 µg/mL (≈ 86.6 µM) for the second.

NC(=O)C1CCN(c2nccc(Cl)n2)CC1 and CN(C)c1ccccc1-c1csc(N2CCC(C(N)=O)CC2)n1 cannot be ordered by solubility kinetic: over 35 µg/mL for the first, over 49 µg/mL for the second.

Compared with COCCNc1ncc(-c2cccc(O)c2)c2c1OCC2, CCCC1=Nc2cc(C(=O)NC3CCCC3)ccc2Sc2ccc(C)cc21 is lower in solubility kinetic: over 85 µg/mL for the first, under 1 µg/mL for the second.

First: NC(=O)C1CCN(c2nc(-c3cccc4sc5ccccc5c34)cs2)CC1
Second: CN(C)C(=O)c1cccc(-c2csc(N3CCC(C(N)=O)CC3)n2)c1
The solubility kinetic of the first is lower: under 1 µg/mL for the first, over 53 µg/mL for the second.

CN(C)CCCn1cc(C2=C(c3c[nH]c4ccccc34)C(=O)NC2=O)c2ccccc21 and c1ccc(Nc2cc3c(cn2)CN(Cc2c[nH]c4ccccc24)CCN3)cc1 cannot be ordered by solubility kinetic: over 41 µg/mL for the first, 43.7 µg/mL (≈ 118 µM) for the second.

First: CN1CCCC1CCOC(c1cc2nccc(C(=O)O)c2[nH]1)c1ccccc1Cl (centres undefined)
Second: O=C(CNC(=O)c1cnccn1)NC1CCCc2c1[nH]c1ccc(Cl)cc21 (centres undefined)
The solubility kinetic of the first is higher: over 61 µg/mL for the first, 1.46 µg/mL (≈ 3.79 µM) for the second.

Compared with COc1cccc(NCCC2(c3ccccc3)CC(C)(C)OC(C)(C)C2)c1, C[C@]12N[C@H](Cc3ccccc31)c1ccccc12 is higher in solubility kinetic: under 1 µg/mL for the first, over 33 µg/mL for the second.

Going from CCOC(=O)c1ccc(NC(=O)N2Cc3[nH]cnc3C[C@H]2c2nc(C(C)C)no2)cc1 to COC(=O)c1ccc(Oc2nc3c(c(=O)n(C)c(=O)n3C)n2CCC(C)C)cc1, the solubility kinetic falls from over 63 µg/mL to under 1 µg/mL.

Compared with OCc1cccc(-c2cc(-c3cccnc3)c3cncn3c2)c1, COc1ccc(S(=O)(=O)Nc2cnccc2C(=O)Nc2nc(-c3ccccc3)cs2)cc1 is 2.9-fold higher in solubility kinetic: 18.5 µg/mL (≈ 61.4 µM) for the first, 54.1 µg/mL (≈ 116 µM) for the second.

Going from CCC(CC)C(=O)NC[C@@H]1C=C(C)[C@H](Cc2nc3c(C)cccc3[nH]2)C[C@H]1C(C)C to CC(C)C[C@H]1C(=O)N2CCC[C@H]2[C@]2(O)O[C@](NC(=O)[C@@H]3C=C4c5cccc6[nH]c(Br)c(c56)C[C@H]4N(C)C3)(C(C)C)C(=O)N12, the solubility kinetic falls from 4.34 µg/mL (≈ 10.6 µM) to under 1 µg/mL.

COc1cc(Nc2nc(-c3ccncc3)nc3ccccc23)ccc1NS(C)(=O)=O and c1ccc2c(Nc3ccc4nc[nH]c4c3)nc(-c3ccncc3)nc2c1 cannot be ordered by solubility kinetic: under 1 µg/mL for the first, under 1 µg/mL for the second.

O=C1CCCC2=C1C1(CCSCC1)N=C(Nc1nc3ccccc3o1)N2 and O=C1CCCC2=C1C1(CCCC1)N=C(Nc1nc3cc(Br)ccc3o1)N2 cannot be ordered by solubility kinetic: under 1 µg/mL for the first, under 1 µg/mL for the second.

CSc1ccccc1-c1ccc(Nc2nc(-c3ccncc3)nc3ccccc23)cc1F and Cc1ccc(-c2ccc(CNc3nc(-c4ccccc4C(C)C)ncc3C)cc2)cn1 cannot be ordered by solubility kinetic: under 1 µg/mL for the first, under 1 µg/mL for the second.

First: Cc1cc(SCc2sc(-c3ccc(C(F)(F)F)cc3)nc2C)ccc1OCC(=O)O
Second: Cc1cc(-c2nnc3n2CCCCC3)c(C)n1-c1ccc(C(F)(F)F)cc1
The solubility kinetic of the first is higher: over 67 µg/mL for the first, 43.3 µg/mL (≈ 116 µM) for the second.

Going from O=C(c1ccc2c(c1)ncn2-c1cccc(C(F)(F)F)c1)N1CCCCC1 to O=C(Nc1nc2cc(C(F)(F)F)cc(NC3CC3)n2n1)c1cccnc1, the solubility kinetic falls from over 55 µg/mL to under 1 µg/mL.

Compared with O=C(NCCCNc1nc(Nc2cccc(NC(=O)N3CCCC3)c2)ncc1I)c1cccs1, CN(C)CCNC(=O)c1nc(-c2ccccc2)cc2[nH]ccc12 is 2-fold higher in solubility kinetic: 14.2 µg/mL (≈ 24 µM) for the first, 28.3 µg/mL (≈ 91.9 µM) for the second.

First: COc1ccc(-n2nc(C)c([C@@H]3C=C[C@@H](NCc4ccc(N(C)C)cc4)C3)c2C)cc1
Second: CCc1ccc(C2N=C(N)Nc3nc4ccccc4n32)cc1 (centres undefined)
The solubility kinetic of the first is 7.3-fold higher: 50.3 µg/mL (≈ 121 µM) for the first, 6.87 µg/mL (≈ 23.6 µM) for the second.

Compared with O=C(NC1CCCc2c1cnn2-c1ccc(F)cc1F)c1ccc(C2(C(F)(F)F)N=N2)cc1 (centres undefined), Oc1ccc(-c2nc(C3CC3)nc3c2CCN(CC2CCCCC2)CC3)cc1 is higher in solubility kinetic: under 1 µg/mL for the first, 11.3 µg/mL (≈ 29.9 µM) for the second.

Brc1ccc(-c2csc(N3CCCCC3)n2)cc1 and Clc1ccc(-c2nnc(C3CCCCC3)o2)cc1 cannot be ordered by solubility kinetic: under 1 µg/mL for the first, under 1 µg/mL for the second.

Going from Cc1nc2ccc(C(=O)N3CCC4(CC3)CC(=O)c3c(cnn3C(C)C)C4)cc2[nH]1 to Cc1cccc2nc(NC3=NC(c4[nH]ncc4Cl)C4=C(CCCC4=O)N3)oc12 (centres undefined), the solubility kinetic falls from over 60 µg/mL to 1.82 µg/mL (≈ 4.6 µM).

First: OC1(c2ccc(Cl)cc2)CCN(Cc2c[nH]c3ccccc23)CC1
Second: CCOc1ccc(/C=C/c2nc3ccccc3n2S(=O)(=O)c2cccc(Cl)c2)cc1
The solubility kinetic of the first is higher: over 50 µg/mL for the first, 0.035 µg/mL (≈ 0.0797 µM) for the second.

Work on CC1=C(C(=O)NC2CCCC2)C(c2nn(C)cc2Cl)N=C(Nc2nc3ccccc3o2)N1 (centres undefined) yielded a solubility kinetic of 10 µg/mL (≈ 22 µM).
